In PMC11466185, “Mechanisms and efficacy of small molecule latency-promoting agents to inhibit HIV reactivation ex vivo” (JCI Insight, 2024):
Several values for one entry are separate records, joined by “and”; a condition that tells them apart may be missing. Equal entries are not always repeated. Where two headings read alike, the source gives them in different places.

Experiments:
PBMCs [1] = format: cell-based, human; conditions: 6 days after αCD3/28 activation, each row one participant
Protocol: Next, we evaluated the ability of the candidate LPAs to sustain the inhibitory effects during a prolonged ex vivo culture. To this end, PBMCs were cultured in the presence of individual drugs in DMSO or in DMSO alone as control, activated (anti-CD3/CD28), and harvested after 6 days. […] However, we decided to test the drug on day 6 because extra cells were available from some study participants.
For quantification of cell-associated HIV transcripts, PBMCs were harvested either after 24 hours or after 6 days. The cell viabilities were measured by trypan blue staining; then the cells were pelleted by centrifuging at 300g for 6 minutes and stored at –80°C. For quantification of virion-associated HIV RNA, cell culture supernatant was collected from 6 × 10^6 PBMCs that were treated and activated for 6 days as described above. Residual cells and cellular debris were subsequently removed from the supernatant by differential centrifugation (300g for 6 minutes, then 20,000g for 10 minutes), and the supernatant was stored at –80°C.
A) After six days, the viability was measured by trypan blue staining and then normalized to the levels of the activated DMSO (% of activated DMSO). Bars indicate medians and different colors indicate individual study participants. B-F) Each drug was tested in PBMCs from at least six ART-suppressed study participants (except for KRIBB11, n=5) and the PBMCs were aliquoted into wells at 6x10^6 cells/well. After activation, the cells were cultured with antiretrovirals in the presence of individual drugs in DMSO or DMSO alone as control. After six days, total RNA was extracted and the progression through different stages of HIV transcription was (1 picture or pasted object on this page, not shown here)

[2] = system: HIV transcripts (TAR, LLTR, Pol, PolyA, TatRev); assay: Latency reversal assay: cell-associated HIV transcripts (RT-ddPCR) 24 hours after anti-CD3/CD28 activation of PBMCs from ART-suppressed PWH; format: cell-based; set-up: key to TatRev: % of activated DMSO control, normalized to 1 μg total RNA; Elongated (LLTR) HIV transcripts, median relative to activated DMSO, initial screening / Midtranscribed (Pol) HIV transcripts, median relative to activated DMSO, initial screening / Multiply spliced (TatRev) HIV transcripts, median relative to activated DMSO, initial screening: concentration or dose not given beside the values; conditions: for HIV transcriptional completion, ratio PolyA/LLTR: Figure 3C; for HIV multiple splicing, ratio TatRev/PolyA: Figure 3D; for Pol HIV transcripts (DMSO αCD3/28 = 100) / PolyA HIV transcripts (DMSO αCD3/28 = 100) / TatRev HIV transcripts (DMSO αCD3/28 = 100): αCD3/28-activated, ruxolitinib 4μM, triptolide 25-50nM, alvocidib 40nM, dinaciclib 8nM, AZD4573 8nM, quercetin 5μM, pladienolide B 10nM, isoginkgetin 25μM, herboxidiene 5nM, KRIBB11 2.5μM, tanespimycin 5μM, mithramycin A 25nM; for PolyA/LLTR / TatRev/PolyA / LLTR/TAR: DMSO+CD3/28 = 1, Fig 3B, C and D; for PolyA / TatRev: DMSO+αCD3/28 = 100, Fig 3A
Procedure, shortened: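 PBMCs from ART-suppressed people with HIV (6 × 10^6 cells/well) treated with drug in DMSO, activated with anti-CD3/CD28 beads with antiretrovirals, harvested after 24 hours. TAR, LLTR, Pol, PolyA and TatRev transcripts measured by RT-ddPCR, normalized to 1 μg total RNA, expressed as % of activated DMSO control.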

PBMCs [3] = assay: Cell viability by trypan blue staining after 24 hours; format: cell-based, human; set-up: key to Viability (dose-response): % of activated DMSO control viability; conditions: for Viability (dose-response): 1 participant per drug, in % (unit assumed); for Cell viability (in words): initial screening concentrations, Figure 1A
Procedure, shortened: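 PBMCs from ART-suppressed donors at 6 × 10^6 cells/well were activated with CD3/28 beads and cultured with antiretrovirals plus drug in DMSO. Viability counted by trypan blue after 24 hours. Values were normalized to the activated DMSO control.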

[4] = 100nM, 24 h after αCD3/28 activation, each column one participant
[5] = 10/100nM, 24 h after αCD3/28 activation, each column one participant
[6] = 24 hours, compared with activated DMSO
[7] = initial screening, 2 participants, 24 hours, Supplemental Figure 2

Compound: pladienolide B
- Cell viability (DMSO αCD3/28 = 100) (PBMCs [1]; 10nM): 115.2 and 113.39 and 90.65 and 128.6 and 121.6 and 94.2 and 112.8
- LLTR HIV transcripts (DMSO+αCD3/28 = 100) [2, 4]: 105.44 and 112.17
- Pol HIV transcripts (DMSO+αCD3/28 = 100) [2, 4]: 61.14 and 46.29
- TatRev HIV transcripts (DMSO+αCD3/28 = 100) [2, 4]: 0
- LLTR HIV transcripts (DMSO+αCD3/28 = 100) [2, 5]: 105.44 and 112.17 and 22.15 and 34.23 and 14.5 and 7.78 and 32.23
- Pol HIV transcripts (DMSO+αCD3/28 = 100) [2, 5]: 61.14 and 46.29 and 2.85 and 58.11 and 12.19 and 5.03 and 29.65
- PolyA HIV transcripts (DMSO+αCD3/28 = 100) [2, 5]: 25.19 and 8
- TAR HIV transcripts (DMSO+αCD3/28 = 100) [2, 5]: 70.83 and 56.32 and 43.76 and 138.46
- TatRev HIV transcripts (DMSO+αCD3/28 = 100) [2, 5]: 0 (4×) and 2.98 and 6.21 and 11.47
- HIV transcriptional completion, ratio PolyA/LLTR [2, 6]: reduced
- HIV multiple splicing, ratio TatRev/PolyA [2, 6]: reduce HIV multiple splicing
- Reduction of multiply spliced or completed HIV transcripts in drug screen (selection as candidate LPA) ([2]; initial screening, 2 participants, 24 hours): more than 50%
- Completed (PolyA) HIV transcripts, median relative to activated DMSO, initial screening [2, 7]: 17%
- Pol HIV transcripts (DMSO αCD3/28 = 100) ([2]; participant 2027): 56.14
- PolyA HIV transcripts (DMSO αCD3/28 = 100) ([2]; participant 2027): 45.13
- TatRev HIV transcripts (DMSO αCD3/28 = 100) ([2]; participant 2027): 0
- Pol HIV transcripts (DMSO αCD3/28 = 100) ([2]; participant 2147a): 74.51
- PolyA HIV transcripts (DMSO αCD3/28 = 100) ([2]; participant 2147a): 38.34
- TatRev HIV transcripts (DMSO αCD3/28 = 100) ([2]; participant 2147a): 22.95
- Pol HIV transcripts (DMSO αCD3/28 = 100) ([2]; participant 2161): 44.19
- PolyA HIV transcripts (DMSO αCD3/28 = 100) ([2]; participant 2161): 152.38
- TatRev HIV transcripts (DMSO αCD3/28 = 100) ([2]; participant 2161): 381.82
- PolyA HIV transcripts (DMSO αCD3/28 = 100) ([2]; participant 2461): 53.85
- Pol HIV transcripts (DMSO αCD3/28 = 100) ([2]; participant 2747): 21.03
- PolyA HIV transcripts (DMSO αCD3/28 = 100) ([2]; participant 2747): 65.33
- TatRev HIV transcripts (DMSO αCD3/28 = 100) ([2]; participant 2747): 0
- Pol HIV transcripts (DMSO αCD3/28 = 100) ([2]; participant 2750): 212.24
- PolyA HIV transcripts (DMSO αCD3/28 = 100) ([2]; participant 2750): 74.85
- TatRev HIV transcripts (DMSO αCD3/28 = 100) ([2]; participant 2750): 155
- Multiply spliced HIV transcripts (TatRev) (Fig 1B) ([2]; study participant 150a, 24 hours): 0 % of activated DMSO
- PolyA/LLTR ([2]; study participant 150a): 0.2389
- TatRev/PolyA ([2]; study participant 150a): 0
- PolyA ([2]; study participant 150a): 25.19
- TatRev ([2]; study participant 150a): 0
- Multiply spliced HIV transcripts (TatRev) (Fig 1B) ([2]; study participant 152, 24 hours): 0 % of activated DMSO
- PolyA/LLTR ([2]; study participant 152): 0.07129
- TatRev/PolyA ([2]; study participant 152): 0
- PolyA ([2]; study participant 152): 8
- TatRev ([2]; study participant 152): 0
- PolyA/LLTR ([2]; study participant 163): 0.2589
- TatRev/PolyA ([2]; study participant 163): 0
- PolyA ([2]; study participant 163): 5.73
- TatRev ([2]; study participant 163): 0
- LLTR/TAR ([2]; study participant 1379): 0.1778
- PolyA/LLTR ([2]; study participant 1379): 0.4115
- TatRev/PolyA ([2]; study participant 1379): 0
- PolyA ([2]; study participant 1379): 3.2
- TatRev ([2]; study participant 1379): 0
- LLTR/TAR ([2]; study participant 2147b): 0.4833
- PolyA/LLTR ([2]; study participant 2147b): 0.2849
- TatRev/PolyA ([2]; study participant 2147b): 0.3058
- PolyA ([2]; study participant 2147b): 9.75
- TatRev ([2]; study participant 2147b): 2.98
- LLTR/TAR ([2]; study participant 2256): 0.2575
- PolyA/LLTR ([2]; study participant 2256): 0.2751
- TatRev/PolyA ([2]; study participant 2256): 1.556
- PolyA ([2]; study participant 2256): 3.99
- TatRev ([2]; study participant 2256): 6.21
- LLTR/TAR ([2]; study participant 5557): 0.2328
- PolyA/LLTR ([2]; study participant 5557): 0.5006
- TatRev/PolyA ([2]; study participant 5557): 0.7112
- PolyA ([2]; study participant 5557): 16.13
- TatRev ([2]; study participant 5557): 11.47
- Viability (dose-response) (PBMCs [3]; dose 0.1 nM): 74.768
- Viability (dose-response) (PBMCs [3]; dose 1 nM): 75.444
- Viability (dose-response) (PBMCs [3]; dose 10 nM): 68.259
- Cell viability (in words) (PBMCs [3]): impact on cell viability
- Viability (Fig 1A) (PBMCs [3]; study participant 150a): 75.5 % of activated DMSO
- Viability (Fig 1A) (PBMCs [3]; study participant 152): 79.98 % of activated DMSO

Compound: CC(C)[C@]12O[C@H]1[C@@H]1O[C@]13[C@]1(O[C@H]1C[C@H]1C4=C(CC[C@@]13C)C(=O)OC4)[C@@H]2O [triptolide]
- Cell viability (DMSO αCD3/28 = 100) (PBMCs [1]; 25-50nM): 81.87 and 92.51 and 90.83 and 106.88 and 80.32 and 104.1
- HIV transcriptional elongation, ratio LLTR/TAR ([2]; 24 hours, compared with activated DMSO, Figure 3B): no impact
- HIV transcriptional completion, ratio PolyA/LLTR [2, 6]: reduced completion
- HIV multiple splicing, ratio TatRev/PolyA [2, 6]: reduce HIV multiple splicing
- Decrease in initiated TAR transcripts ([2]; after activation, relative to activated DMSO): more than 95%
- Multiply spliced (TatRev) HIV transcripts, median relative to activated DMSO, initial screening ([2]; initial screening, 2 participants, 24 hours, Figure 1B, Supplemental Figure 2): 0%
- Elongated (LLTR) HIV transcripts, median relative to activated DMSO, initial screening [2, 7]: 21%
- Midtranscribed (Pol) HIV transcripts, median relative to activated DMSO, initial screening [2, 7]: 9%
- Cell viability (in words) (PBMCs [3]): impact on cell viability
- Viability (Fig 1A) (PBMCs [3]; study participant 150b): 96.4057 % of activated DMSO
- Viability (Fig 1A) (PBMCs [3]; study participant 2147b): 91.51 % of activated DMSO

Compound: CC(=O)N[C@@H]1CCC[C@H](C(=O)Nc2cc(-c3cnn4c3CC(C)(C)C4)c(Cl)cn2)C1 [AZD4573]
- Cell viability (DMSO αCD3/28 = 100) (PBMCs [1]; 8nM): 123.6 and 120.68 and 105.88 and 140.1 and 117.5 and 116.7 and 104.1
- HIV transcriptional completion, ratio PolyA/LLTR [2, 6]: reduced
- Viability (dose-response) (PBMCs [3]; dose 1 nM): 74.75
- Viability (dose-response) (PBMCs [3]; dose 8 nM): 63.616
- Viability (dose-response) (PBMCs [3]; dose 20 nM): 68.369
- Viability (Fig 1A) (PBMCs [3]; study participant 150a): 106.07 % of activated DMSO
- Viability (Fig 1A) (PBMCs [3]; study participant 152): 97.45 % of activated DMSO
